Experimental data reported in US20030215888A1, “Androgen receptor overexpressing skeletal myoblasts” (Pfizer Inc., priority 2002, published 2003).
Read-outs that look alike come from different tables or passages of the source.

How the values were obtained:
C2C12 cells [1] = conditions: C2C12, addition of DHT, fusion medium
Text: (§4) Fusion medium was changed daily. C2hAR57 cells at low density in high mitogen growth medium appeared as small, adherent mononuclear cells.

C2hAR57 cells [2] = conditions: C2hAR57, 100 nM DHT, 1, 2 or 3 days in fusion medium
Text: as §4

C2hAR57 cells [3] = assay: [3H]-thymidine uptake assay, C2hAR57 cells; assay type: cell-based, mouse; conditions: 48 hours exposure
Protocol: After 48 hours exposure to the test agents, medium containing 0.1 μCi [^3H]-thymidine (82 Ci/mmol, Amersham, Buckinghamshire, UK) per well was added and incubation was continued for two additional hours at 37° C. The assay was terminated by aspirating the culture medium and washing with ice-cold phosphate buffered saline followed by 5% trichloroacetic acid. The cells where then lysed by applying 0.3 N NaOH (75 μl per well) followed by 0.3 N HCl (75 μl per well) to neutralize the NaOH. The radioactivity in 50-μl aliquots was determined by liquid scintillation counting in 96-well plates (Packard Instrument Corporation) using a TopCount™ Scintillation Counter (Packard Instrument Corporation).

C2hAR57 cells [4] = conditions: for protein content / protein content, percentage difference from vehicle: 3 days in fusion medium
Protocol: (§1) Procedure A—Three days in fusion medium. C2hAR57 cells were plated in 12-well tissue culture plates (Costar, Corning, N.Y.) at 4×10^4 cells/well in high mitogen growth medium.

C2C12 cells [5] = conditions: for protein content / protein content, percentage difference from vehicle: 3 days in fusion medium
Protocol: as §1

[6] = system: IGF-II transcripts in C2C12 cells; conditions: C2C12, 100 nM DHT
Protocol: (§2) Day zero samples were harvested just prior to the induction of differentiation. […] Total RNA was isolated using Trizol®, and RNA concentration was determined by UV spectroscopy. Samples containing 20 micrograms of total RNA were separated by electrophoresis on formaldehyde-containing agarose gels, transferred to Duralon-UV™ nylon membrane (Stratagene, La Jolla, Calif.) by capillary blotting in 5×SSPE and probed sequentially for IGFBP4, IGF-II and 18S ribosomal RNA. DNA fragments used for probes were generated by reverse transcription polymerase chain reaction using rat skeletal muscle poly A+ RNA as template. […] Probes were denatured by boiling and used at a concentration of 1-2×10^6 dpm/ml hybridization solution (50% formamide, 6×SSC, 1% SDS, 15×Denhardt's solution, 0.1 mg/ml sheared salmon sperm DNA). Following hybridization at 42° C. for at least 24 hours, the membranes were washed to moderate stringency with 0.3×SSC/0.1% SDS at 55° C. […] Between successive probings, the membrane was stripped by incubation at 70° C. for one to three hours in a solution consisting of 5 mM Tris HCl, pH 8, 0.2 mM Na2EDTA, 0.05% sodium pyrophosphate and 0.1×Denhardt's solution. The imaging plate was exposed for 42 hours and 90 minutes to the IGFBP4 and IGF-II hybridizations, respectively. The 18S signal was used to normalize the hybridization signals from each of the other probes.

[7] = system: IGF-II transcripts in C2hAR57 cells; conditions: C2hAR57, 100 nM DHT
Protocol: as §2

[8] = system: IGFBP4 transcripts in C2hAR57 cells; conditions: C2hAR57, 100 nM DHT
Protocol: as §2

[9] = system: IGFBP4 transcripts in C2C12 cells; conditions: C2C12, 100 nM DHT
Protocol: as §2

C2hAR57 cells [10] = conditions: C2hAR57, 100 nM DHT
Protocol: (§3) All cultures were approximately 80% confluent at the time of mitogen withdrawal. After 24 hour in fusion medium, the medium containing nonadherent cells was transferred to centrifuge tubes. The dishes were then rinsed with phosphate buffered saline and adherent cells were collected by trypsinization. Cell pellets were recovered by centrifugation and lysed in 50 mM Tris HCl, pH 8, 100 mM Na2EDTA, 0.5% sodium dodecylsulfate. […] DNA yields from pools of five dishes were determined by UV spectroscopy at 260 nm. Aliquots corresponding to 10 μg DNA were analyzed by electrophoresis on a 1% agarose gel in TBE buffer and visualized by ethidium bromide fluorescence with UV transillumination.

C2C12 cells [11] = conditions: C2C12, 100 nM DHT, 24 hours in fusion medium
Protocol: as §3

C2hAR57 cells [12] = conditions: for Change in protein content: during 24 hours in fusion medium
Protocol: Procedure B—24 Hours in fusion medium. […] Cell extracts were prepared from the second set of cultures after 24 hours in fusion medium (day one). The change in protein content was determined by subtracting the average protein content for each treatment on day zero from the average protein content on day one.

Compound: C[C@]12CCC(=O)C[C@@H]1CC[C@@H]1[C@@H]2CC[C@]2(C)[C@@H](O)CC[C@@H]12 [DHT, dihydrotestosterone]
- rate and extent of myotube formation (C2C12 cells [1]): neither the rate nor the extent of myotube formation in cultures of C2C12 was visibly affected
- rate of myotube formation (C2hAR57 cells [2]): more rapidly
- effect on [3H]-thymidine uptake (C2hAR57 cells [3]): dose-dependent inhibitory effects
- protein content (C2hAR57 cells [4]; C2hAR57, 0.001 nM DHT): 123 ± 6 micrograms/well
- protein content, percentage difference from vehicle (C2hAR57 cells [4]; C2hAR57, 0.001 nM DHT): −1%
- protein content (C2hAR57 cells [4]; C2hAR57, 0.01 nM DHT): 127 ± 11 micrograms/well
- protein content, percentage difference from vehicle (C2hAR57 cells [4]; C2hAR57, 0.01 nM DHT): +3%
- protein content (C2hAR57 cells [4]; C2hAR57, 0.1 nM DHT): 152 ± 2 micrograms/well
- protein content, percentage difference from vehicle (C2hAR57 cells [4]; C2hAR57, 0.1 nM DHT): +23%
- protein content (C2hAR57 cells [4]; C2hAR57, 1 nM DHT): 188 ± 4 micrograms/well
- protein content, percentage difference from vehicle (C2hAR57 cells [4]; C2hAR57, 1 nM DHT): +52%
- protein content (C2hAR57 cells [4]; C2hAR57, 10 nM DHT): 199 ± 10 micrograms/well
- protein content, percentage difference from vehicle (C2hAR57 cells [4]; C2hAR57, 10 nM DHT): +61%
- protein content (C2hAR57 cells [4]; C2hAR57, 100 nM DHT): 200 ± 4 micrograms/well
- protein content, percentage difference from vehicle (C2hAR57 cells [4]; C2hAR57, 100 nM DHT): +62%
- protein content (C2hAR57 cells [4]; C2hAR57, 1000 nM DHT): 212 ± 3 micrograms/well
- protein content, percentage difference from vehicle (C2hAR57 cells [4]; C2hAR57, 1000 nM DHT): +71%
- dose-related increase in total protein content (C2hAR57 cells [4]; differentiating C2hAR57 cultures, DHT 10^-12-10^-6 M, Procedure A): up to 71%
- protein content (C2C12 cells [5]; C2C12, 0.001 nM DHT): 245 ± 5 micrograms/well
- protein content, percentage difference from vehicle (C2C12 cells [5]; C2C12, 0.001 nM DHT): +3%
- protein content (C2C12 cells [5]; C2C12, 0.01 nM DHT): 228 ± 3 micrograms/well
- protein content, percentage difference from vehicle (C2C12 cells [5]; C2C12, 0.01 nM DHT): −4%
- protein content (C2C12 cells [5]; C2C12, 0.1 nM DHT): 246 ± 4 micrograms/well
- protein content, percentage difference from vehicle (C2C12 cells [5]; C2C12, 0.1 nM DHT): +3%
- protein content (C2C12 cells [5]; C2C12, 1 nM DHT): 256 ± 9 micrograms/well
- protein content, percentage difference from vehicle (C2C12 cells [5]; C2C12, 1 nM DHT): +7%
- protein content (C2C12 cells [5]; C2C12, 10 nM DHT): 243 ± 6 micrograms/well
- protein content, percentage difference from vehicle (C2C12 cells [5]; C2C12, 10 nM DHT): +2%
- protein content (C2C12 cells [5]; C2C12, 100 nM DHT): 243 ± 6 micrograms/well
- protein content, percentage difference from vehicle (C2C12 cells [5]; C2C12, 100 nM DHT): +2%
- protein content (C2C12 cells [5]; C2C12, 1000 nM DHT): 278 ± 2 micrograms/well
- protein content, percentage difference from vehicle (C2C12 cells [5]; C2C12, 1000 nM DHT): +17%
- change in total protein content (C2C12 cells [5]; C2C12 cultures, DHT 10^-12-10^-6 M, Procedure A): no consistent change
- increase of IGF-II transcripts ([6]; 0 days in fusion medium): 0.8 ×
- increase of IGF-II transcripts ([6]; 1 day in fusion medium): 1.5 ×
- increase of IGF-II transcripts ([6]; 2 days in fusion medium): 1.0 ×
- increase of IGF-II transcripts ([7]; 0 days in fusion medium): 10.2 ×
- increase of IGF-II transcripts ([7]; 1 day in fusion medium): 3.6 ×
- increase of IGF-II transcripts ([7]; 2 days in fusion medium): 2 ×
- magnitude of IGFBP4 suppression ([8]; 0 days in fusion medium): 75%
- magnitude of IGFBP4 suppression ([8]; 1 day in fusion medium): 86%
- magnitude of IGFBP4 suppression ([8]; 2 days in fusion medium): 70%
- magnitude of IGFBP4 suppression ([9]; 0 days in fusion medium): 20%
- magnitude of IGFBP4 suppression ([9]; 1 day in fusion medium): 51%
- magnitude of IGFBP4 suppression ([9]; 2 days in fusion medium): 44%
- reduction of the incidence of apoptotic cells (C2hAR57 cells [10]; 24 hour period following mitogen withdrawal): approximately 75%
- DNA, adherent cells (C2hAR57 cells [10]; 24 hours in fusion medium): 528 μg/dish
- DNA, nonadherent cells (C2hAR57 cells [10]; 24 hours in fusion medium): 2.6 μg/dish
- DNA, nonadherent cells (% total) (C2hAR57 cells [10]; 24 hours in fusion medium): 0.5%
- DNA, adherent cells (C2C12 cells [11]): 504 μg/dish
- DNA, nonadherent cells (% total) (C2C12 cells [11]): 2.9%
- effect on the fraction of nonadherent cells (C2C12 cells [11]): did not appreciably alter
- Change in protein content (C2hAR57 cells [12]; C2hAR57, 0.001 nM DHT): −93 micrograms/well
- Change in protein content (C2hAR57 cells [12]; C2hAR57, 0.1 nM DHT): −56 micrograms/well
- Change in protein content (C2hAR57 cells [12]; C2hAR57, 10 nM DHT): +48 micrograms/well
- Change in protein content (C2hAR57 cells [12]; C2hAR57, 1000 nM DHT): +61 micrograms/well
- effect on net loss of protein seen with vehicle (C2hAR57 cells [12]; C2hAR57, increasing concentrations of DHT, Procedure B): ameliorated and even reversed
